# Laboratory results published in patent US6271238A, “Acetamide derivatives and protease inhibitors” (Nippon Kayaku Kabushiki Kaisha, priority 1996, dated 2001).
# Where a name gives a salt, the structure may show the parent alone.
# Test system: guinea pig eosinophils
# Test: Inhibitory action on eosinophils (release of active oxygen from guinea pig eosinophils)
# Format: cell-based
# Settings: Cavia porcellus, Eosinophil, 5 min, PAF, luminol chemiluminescence for 5 minutes
# Method: Inhibitory activity on eosinophil activation
# (A) Preparation of eosinophils
# Polymyxin B (produced by Sigma) was administered intraperitoneally into a guinea pig (Hartley, male, 6-week-old) at a dosage of 1 mg once every week for 6 to 8 weeks. After the final administration of polymyxin B. 50 ml of PBS (phosphate-buffered saline) was injected into the intraperitoneal cavity of the guinea pig, and cells were recovered. The cells were centrifuged at 800 rpm for 5 minutes and the abdomen infiltration cells were collected as precipitates and then suspended in 1 ml of 40% Ficoll (40% Ficoll (produced by Pharmacia), HBSS (Hanks' balanced salt solution) and layered on a Ficoll discontinuous density gradient (40 to 90%). It was centrifuged at 1500 rpm for 40 minutes, and the eosinophil fraction was recovered. In this operation, eosinophils of 99% or more purity were usually obtained. Further, the cells were washed twice with RPMI 1640 medium (10% BSA (bovine serum albumin available from Boehringer Mannheim), suspended again at a predetermined density, and used in the objective experiment.
# (B) Inhibitory action on eosinophils (inhibitory action on release of active oxygen from guinea pig eosinophils)
# The eosinophils (99% or more purity) obtained by the Ficoll density gradient method in (A) above were suspended at a cell density of 4×10^5 in a buffer solution (0.136 M sodium chloride, 2.7 mM potassium chloride, 1.8 mM calcium chloride, 1.0 mM magnesium chloride, 11.9 mM sodium hydrogen carbonate, 5.5 mM D-glucose, 5.0 mM HEPES, 0.36 mM sodium dihydrogen phosphate, pH 7.2). Each drug (2 μl) and 180 μl of the cell suspension were put to a 96-well multi-well plate (for chemiluminescence measurement, white type) previously kept at 37° C., and incubated at 37° C. for 10 minutes. After incubation, 20 μl of PAF (platelet-activating factor) (5×10^-6 M) and 20 μl of a luminol solution were added to it and immediately examined for its chemiluminescence (Luminoskan Labosystem). The chemiluminescence for 5 minutes were measured to calculate 50% inhibitory concentration (IC50: μM).
row,IC50,Structure (SMILES)
1,18 µM,CCCCC(=O)C(=O)C(Cc1ccccc1)NC(=O)Cn1c(-c2ccccc2)ncc(N)c1=O (centres unmarked) [Compound 44]
2,62 µM,CCOC(=O)CCCC(=O)C(=O)C(Cc1cccc(F)c1)NC(=O)Cn1c(-c2ccccc2)ncc(N)c1=O (centres unmarked) [Compound 54]
3,3 µM,"Nc1cnc(-c2ccccc2)n(CC(=O)NC(Cc2ccccc2)C(=O)C(=O)CCCn2ccccc2=O)c1=O (centres unmarked) [Compound 73, 2-(5-Amino-6-oxo-2-phenyl-1,6-dihydropyrimidine-1-yl)-N-{2,3-dioxo-1-phenylmethyl-6-(2-oxo-1,2-dihydropyridine-1-yl)}hexylacetamide hydrochloride]"

row,Structure (SMILES),IC50
1,Nc1cnc(-c2ccccc2)n(CC(=O)NC(Cc2ccccc2)C(=O)C(=O)CCCc2ccccc2)c1=O (centres unmarked) [Compound 40],5.6 µM
2,"CC(=O)C(=O)C(Cc1cccc(F)c1)NC(=O)Cn1c(-c2ccccc2)ncc(N)c1=O (centres unmarked) [Compound 52, 2-(5-Amino-6-oxo-2-phenyl-1,6-dihydropyrimidine-1-yl)-N-{1-(3-fluorophenyl)methyl-2,3-dioxo}butylacetamide]",26 µM
